Assay results as given in PubChem BioAssay AID651766 (The Scripps Research Institute Molecular Screening Center, 2012).
“And” between values parts separate entries of the source, which are not always exact repeats. Identical values can stand only once. The source made the active and inactive calls. No rule for the calls is given here.

These compounds were tested against Perilipin-1 (Homo sapiens) + 1-acylglycerol-3-phosphate O-acyltransferase ABHD5 (Homo sapiens) (UniProt O60240+Q8WTS1) (assay: ABHD5-PLIN1 binding inhibitors, late-stage follow-up, counter-screen for ABHD5-PLIN5 interaction inhibitor project, biochemical, luminescence, dose response (AID 651766)).

Row | SMILES | IC50
1 | CC(=O)Cc1cc(O)c2ccccc2c1OC(=O)c1ccccc1 | 1.36 µM
2 | CCCNC(=O)Nc1ccc2c(c1)N(C)C(=O)c1ccccc1S2 | 3.73 µM
3 | C=C[C@]1(C)C[C@@H](OC(=O)CSCCN(CC)CC)[C@]2(C)C(C)CC[C@]3(CCC(=O)[C@H]32)[C@@H](C)[C@@H]1O (stereo partly specified) | inactive
4 | COc1cc2c(cc1OC)C(C)N(CCc1ccc(Cl)cc1)CC2 (stereo unspecified) | inactive
5 | Cc1cc(C)c2nc(NNC(=O)c3ccc(S(=O)(=O)N4CCCC(C)C4)cc3)sc2c1 (stereo unspecified) | 2.53 µM
6 | Cc1ccc2c(CC(=O)N3CCN(S(=O)(=O)c4ccc5c(c4)OCCO5)CC3)coc2c1 | 2.38 µM and 1.6 µM
7 | CCOC(=O)c1c(NC(=O)/C=C/C(=O)O)sc(C)c1-c1ccc(C(C)(C)C)cc1 | 3.72 µM
8 | CN(C)CCOC1(Cc2ccc(F)cc2)CCC(C(C)(C)C)CC1 (stereo unspecified) | > 39.8 µM (inactive)
9 | CCN(CC)CCC(C)OC(c1ccccc1)c1ccccc1 (stereo unspecified) | 1.44 µM
10 | CCCCOC(=O)Nc1cc(C(=O)OC)ccc1C(=O)OC | 3.83 µM
11 | CC1CCN(S(=O)(=O)c2ccc(NC(=O)Cc3cccs3)cc2)CC1 | 3.54 µM
12 | CC1Sc2ccc(S(=O)(=O)N3CCC(C(=O)NCc4ccc(Cl)cc4)CC3)cc2NC1=O (stereo unspecified) | 4.51 µM
13 | O=C(/C(=C/O)N=Nc1ccc(Cl)cc1)c1ccncc1 | 5.2 µM
14 | COc1cc(OC)cc(C(=O)NC(=S)N(Cc2ccccc2)C(C)C)c1 | 1.46 µM
15 | CC(CCc1ccco1)NC(=O)CCc1nnc2ccc(NCc3ccccc3Cl)nn12 (stereo unspecified) | 0.744 µM
16 | FC(F)(F)c1cccc(NC(=S)N(CCCN2CCCC2)Cc2cccn2Cc2ccc(Cl)cc2)c1 | 8.99 µM
17 | CN(C)CCCN(C(=O)CCc1ccccc1)c1nc2ccc(Br)cc2s1 | 6.82 µM
18 | Cc1nc2c(o1)CCc1ccccc1C2N1CCN(C)CC1 (stereo unspecified) | 4.16 µM
19 | Cc1cc(C)c(NC(=O)CN2CCN3CCCC3C2)c(C)c1 (stereo unspecified) | inactive
20 | CCN(CC)CCOCCOC(=O)C1(c2ccccc2)CCCC1 | 0.925 µM
21 | COc1ccc(NC(=S)N(CCCN2CCCC2)Cc2cccn2Cc2ccc(Cl)cc2)cc1Cl | inactive
22 | CC(=O)Nc1ccc(S(=O)(=O)N2c3ccc(F)cc3CCC2C)cc1 (stereo unspecified) | 5.16 µM
23 | O=c1[nH]c(C2CCN(S(=O)(=O)c3ccc(S(=O)(=O)NC4CC4)cc3)CC2)nc2c1nnn2Cc1ccc(F)cc1 | 1.99 µM

Row | SMILES | IC50
24 | CCN(CC)CCNC(=O)c1ccc(NC(=O)c2cn(-c3ccccc3)nc2-c2cccs2)cc1 | inactive
25 | CCN(CC)CCOc1ccc(/C(=C(/Cl)c2ccccc2)c2ccccc2)cc1 | 0.983 µM
26 | COc1cc(C)c2sc3ccccc3c(=O)c2c1NCCN(C)C | > 39.8 µM (inactive)
27 | CC1CCN(S(=O)(=O)c2ccc(NC(=O)Cc3ccccc3)cc2)CC1 | 3.98 µM
28 | CN(C)CCCN(C(=O)CCc1ccccc1)c1nc2ccc(Cl)cc2s1 | 5.99 µM
29 | Cc1cc(C)c(NC(=O)C[N+](C)(C)CC(O)COc2cccc3ccccc23)c(C)c1 (stereo unspecified) | 4.48 µM
30 | O=c1[nH]c(C2CCN(S(=O)(=O)c3ccc(F)cc3)CC2)nc2c1nnn2Cc1ccc2c(c1)OCCO2 | 8.94 µM
31 | CN(C)CCN(Cc1ccco1)c1ccccn1 | > 39.8 µM (inactive)
32 | CCOC(=O)c1c(NC(C)=O)sc2c1CCC(C=O)=C2Sc1ccccc1 | 1.62 µM
33 | CC1=CC(C)(C)Nc2ccc(OC(=O)C(C)N3C(=O)c4ccccc4C3=O)cc21 (stereo unspecified) | 2.13 µM
34 | COc1ccc(C)c2sc(N(CCN(C)C)C(=O)/C=C/c3cccs3)nc12 | 7.16 µM
35 | CCCCNC(=O)Nc1ccc2c(c1)N(C)C(=O)c1ccccc1S2 | 1.46 µM
36 | CCOc1cc(N)c(Cl)cc1C(=O)NCC1CN(Cc2ccc(F)cc2)CCO1 (stereo unspecified) | 1.2 µM
37 | O=C(C[n+]1cccc(CNC(=O)c2ccc(OC(F)F)cc2)c1)Nc1cccc(C(F)(F)F)c1 | inactive
38 | COCCN(CCOC)c1nc(N)c2c(N)nc3c(c2c1C#N)CC(=O)N3Cc1ccc(Cl)cc1 | > 39.8 µM (inactive)
39 | CCN(CC)CCN(CC(=O)Nc1c(C)cc(C)cc1C)C(=O)c1ccccc1 | 7.34 µM
40 | CC(=O)Oc1ccc(C23c4ccccc4C2(OC(C)=O)c2cc(OC(C)=O)ccc23)cc1 (stereo unspecified) | > 39.8 µM (inactive)
41 | Cc1ccc2nc3cc([N+](=O)[O-])cc([N+](=O)[O-])c3cc2c1 | 0.496 µM
42 | CC(=O)Cc1cc(O)c2ccccc2c1OC(=O)c1ccc(Br)cc1 | 2.04 µM
43 | CN1CCC(=C2c3ccccc3CC(=O)c3sccc32)CC1 | > 39.8 µM (inactive)
44 | NC(=NCCCCCCN=C(N)/N=C(\N)Nc1ccc(Cl)cc1)/N=C(\N)Nc1ccc(Cl)cc1 | 2.14 µM and 2.18 µM
45 | CC(C)c1ccc(N2C=Nc3ccc(C(C)C)cc3C2)cc1 | 1.26 µM
46 | COc1ccccc1-c1cc(C(=O)NC2CCN(C)CC2)c2ccc(Cl)c(C)c2n1 | 9.85 µM
